target: Granzyme B (human lymphocytes) (Homo sapiens (Human), UniProt P10144); assay: human Granzyme B biochemical assay; settings: Granzyme B (human lymphocytes) 5 nM, substrate Ac-IETD-AFC 200 μM, Cpd incubation with enzyme 30 mins, 22° C., read time 60 mins; read-out: IC50
In short: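 Enzyme (10 nM working stock, assay buffer with 0.1% BSA) pre-incubated with compound for 30 min at 22 °C, then Ac-IETD-AFC (800 µM working stock) added for 60 min at 22 °C in the dark. Fluorescence read at Ex 400/Em 505 nm; 8-point 3.16-fold series (40 µM top working stock); IC50 from % inhibition versus standard-inhibitor and DMSO controls.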

Sequence of Granzyme B (human lymphocytes) (P10144 21-247): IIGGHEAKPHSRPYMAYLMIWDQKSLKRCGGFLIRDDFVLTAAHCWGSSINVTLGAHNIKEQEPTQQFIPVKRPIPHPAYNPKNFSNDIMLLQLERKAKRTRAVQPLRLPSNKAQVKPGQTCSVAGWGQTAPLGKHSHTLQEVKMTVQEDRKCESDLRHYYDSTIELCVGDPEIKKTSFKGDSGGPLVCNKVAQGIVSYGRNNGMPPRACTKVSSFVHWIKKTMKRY

**Q.** How did the IC50 turn out when `COc1ccc(C(=O)N[C@H](C(=O)N[C@H]2CCc3cccc4c3N(C2=O)[C@H](C(=O)NCc2c[nH]nn2)C4)C(C)C)cc1` [Compound C065, (2S,5S)-5-[(S)-2-(4-Methoxy-benzoylamino)-3-methyl-butyrylamino]-4-oxo-1,2,4,5,6,7-hexahydro-azepino[3,2,1-hi]indole-2-carboxylic acid (1H-[1,2,3]triazol-4-ylmethyl)-amide] was run?
**A.** 1 to 300 nM

**Q.** Which IC50 does the source give for `CC(=O)NCC(=O)N[C@H]1CCc2cccc3c2N(C1=O)[C@H](C(=O)NCc1c[nH]nn1)C3` [Compound C023, (2S,5S)-5-(2-Acetylamino-acetylamino)-4-oxo-1,2,4,5,6,7-hexahydro-azepino[3,2,1-hi]indole-2-carboxylic acid (1H-[1,2,3]triazol-4-ylmethyl)-amide] here?
**A.** > 5000 nM

**Q.** How did the IC50 turn out when `CC(C)[C@H](NC(=O)c1ccccn1)C(=O)N[C@H]1CCc2cccc3c2N(C1=O)[C@H](C(=O)NCc1c[nH]nn1)C3` [Compound C069, (2S,5S)-5-{(S)-3-Methyl-2-[(pyridine-2-carbonyl)-amino]-butyrylamino}-4-oxo-1,2,4,5,6,7-hexahydro-azepino[3,2,1-hi]indole-2-carboxylic acid (1H-[1,2,3]triazol-4-ylmethyl)-amide] was run?
**A.** 1 to 300 nM

**Q.** `CC[C@H](C)[C@H](NC(=O)COCCF)C(=O)N[C@H]1CCc2cccc3c2N(C1=O)[C@H](C(=O)NCc1cnoc1)C3` [Compound C117, (2S,5S)-5-{(2S,3S)-2-[2-(2-Fluoro-ethoxy)-acetylamino]-3-methyl-pentanoylamino}-4-oxo-1,2,4,5,6,7-hexahydro-azepino[3,2,1-hi]indole-2-carboxylic acid (isoxazol-4-ylmethyl)-amide] was tested. Which IC50 did it give?
**A.** > 5000 nM

**Q.** Which IC50 does the source give for `CC[C@H](C)[C@H](NC(=O)COCCF)C(=O)N[C@H]1CN(C)c2cccc3c2N(C1=O)[C@H](C(=O)NCc1c[nH]nn1)C3` [Compound C144, (3S,6S)-3-{(2S,3S)-2-[2-(2-Fluoro-ethoxy)-acetylamino]-3-methyl-pentanoylamino}-1-methyl-4-oxo-1,2,3,4,6,7-hexahydro-[1,4]diazepino[3,2,1-hi]indole-6-carboxylic acid (1H-[1,2,3]triazol-4-ylmethyl)-amide] here?
**A.** 1 to 300 nM

**Q.** With `O=C(Cc1csc2ccccc12)NCC(=O)N[C@H]1CCc2cccc3c2N(C1=O)[C@H](C(=O)NCc1c[nH]nn1)C3` [Compound C001, (2S,5S)-5-[2-(2-Benzo[b]thiophen-3-yl-acetylamino)-acetylamino]-4-oxo-1,2,4,5,6,7-hexahydro-azepino[3,2,1-hi]indole-2-carboxylic acid (1H-[1,2,3]triazol-4-ylmethyl)-amide] as the compound, how does the IC50 read?
**A.** > 5000 nM

**Q.** Which IC50 does the source give for `O=C(N[C@@H](Cc1ccccc1)C(=O)N[C@H]1CCc2cccc3c2N(C1=O)[C@H](C(=O)NCc1c[nH]nn1)C3)c1ccccc1` [Compound C037] here?
**A.** 1000 to 5000 nM

**Q.** For `O=C(N[C@@H](Cc1ccc(F)cc1)C(=O)N[C@H]1CCc2cccc3c2N(C1=O)[C@H](C(=O)NCc1c[nH]nn1)C3)c1ccccc1` [Compound C043, (2S,5S)-5-[(S)-2-Benzoylamino-3-(4-fluoro-phenyl)-propionylamino]-4-oxo-1,2,4,5,6,7-hexahydro-azepino[3,2,1-hi]indole-2-carboxylic acid (1H-[1,2,3]triazol-4-ylmethyl)-amide], which IC50 is on record?
**A.** > 5000 nM

**Q.** `CC[C@H](C)[C@H](NC(=O)COCCF)C(=O)N[C@H]1CCc2cccc3c2N(C1=O)[C@H](C(=O)NCB(O)O)C3` [Compound C170, {[((2S,5S)-5-{(2S,3S)-2-[2-(2-Fluoro-ethoxy)-acetylamino]-3-methyl-pentanoylamino}-4-oxo-1,2,4,5,6,7-hexahydro-azepino[3,2,1-hi]indole-2-carbonyl)-amino]-methyl}-boronic acid] was tested. Which IC50 did it give?
**A.** 301 to 1000 nM

**Q.** Which IC50 does the source give for `Cc1cccc(C(=O)N[C@H](C(=O)N[C@H]2CCc3cccc4c3N(C2=O)[C@H](C(=O)NCc2c[nH]nn2)C4)C(C)C)c1` [Compound C051, (2S,5S)-5-[(S)-3-Methyl-2-(3-methyl-benzoylamino)-butyrylamino]-4-oxo-1,2,4,5,6,7-hexahydro-azepino[3,2,1-hi]indole-2-carboxylic acid (1H-[1,2,3]triazol-4-ylmethyl)-amide] here?
**A.** 1 to 300 nM

**Q.** How did the IC50 turn out when `CC(C)(C)[C@H](NC(=O)c1ccccc1)C(=O)N[C@H]1CCc2cccc3c2N(C1=O)[C@H](C(=O)NCc1c[nH]nn1)C3` [Compound C046, (2S,5S)-5-((S)-2-Benzoylamino-3,3-dimethyl-butyrylamino)-4-oxo-1,2,4,5,6,7-hexahydro-azepino[3,2,1-hi]indole-2-carboxylic acid (1H-[1,2,3]triazol-4-ylmethyl)-amide] was run?
**A.** 301 to 1000 nM

**Q.** `CC[C@H](C)[C@H](NC(=O)Cc1csc2ccccc12)C(=O)N[C@H]1COc2cccc3c2N(C1=O)[C@H](C(=O)NCc1c[nH]nn1)C3` [Compound C146, (1S,8S)-8-[(2S,3S)-2-(2-Benzo[b]thiophen-3-yl-acetylamino)-3-methyl-pentanoylamino]-9-oxo-1,2,8,9-tetrahydro-7H-6-oxa-9a-aza-benzo[cd]azulene-1-carboxylic acid (1H-[1,2,3]triazol-4-ylmethyl)-amide] was tested. Which IC50 did it give?
**A.** 1 to 300 nM

**Q.** Which IC50 does the source give for `CC[C@H](C)[C@H](NC(=O)Cc1cc2ccccc2o1)C(=O)N[C@H]1CCc2cccc3c2N(C1=O)[C@H](C(=O)NCc1c[nH]nn1)C3` [Compound C159, (2S,5S)-5-[(2S,3S)-2-(2-Benzofuran-2-yl-acetylamino)-3-methyl-pentanoylamino]-4-oxo-1,2,4,5,6,7-hexahydro-azepino[3,2,1-hi]indole-2-carboxylic acid (1H-[1,2,3]triazol-4-ylmethyl)-amide] here?
**A.** 1 to 300 nM

**Q.** For `CC[C@H](C)[C@H](NC(=O)COCCF)C(=O)N[C@H]1CCc2cccc3c2N(C1=O)[C@H](C(=O)NCc1cnc[nH]1)C3` [Compound C110, (2S,5S)-5-{(2S,3S)-2-[2-(2-Fluoro-ethoxy)-acetylamino]-3-methyl-pentanoylamino}-4-oxo-1,2,4,5,6,7-hexahydro-azepino[3,2,1-hi]indole-2-carboxylic acid (3H-imidazol-4-ylmethyl)-amide], which IC50 is on record?
**A.** > 5000 nM

**Q.** With `CC(C)[C@H](NC(=O)c1ccccc1F)C(=O)N[C@H]1CCc2cccc3c2N(C1=O)[C@H](C(=O)NCc1c[nH]nn1)C3` [Compound C049, (2S,5S)-5-[(S)-2-(2-Fluoro-benzoylamino)-3-methyl-butyrylamino]-4-oxo-1,2,4,5,6,7-hexahydro-azepino[3,2,1-hi]indole-2-carboxylic acid (1H-[1,2,3]triazol-4-ylmethyl)-amide] as the compound, how does the IC50 read?
**A.** 301 to 1000 nM

**Q.** For `C[C@H](NC(=O)Cc1csc2ccccc12)C(=O)N[C@H]1CCc2cccc3c2N(C1=O)[C@H](C(=O)NCc1c[nH]nn1)C3` [Compound C002, (2S,5S)-5-[(S)-2-(2-Benzo[b]thiophen-3-yl-acetylamino)propionylamino]-4-oxo-1,2,4,5,6,7-hexahydro-azepino[3,2,1-hi]indole-2-carboxylic acid (1H-[1,2,3]triazol-4-ylmethyl)amide], which IC50 is on record?
**A.** 1000 to 5000 nM

**Q.** With `O=C(CNC(=O)c1ccccc1)N[C@H]1CCc2cccc3c2N(C1=O)[C@H](C(=O)NCc1c[nH]nn1)C3` [Compound C034, (2S,5S)-5-(2-Benzoylamino-acetylamino)-4-oxo-1,2,4,5,6,7-hexahydro-azepino[3,2,1-hi]indole-2-carboxylic acid (1H-[1,2,3]triazol-4-ylmethyl)-amide] as the compound, how does the IC50 read?
**A.** > 5000 nM

**Q.** Which IC50 does the source give for `CC(C)[C@H](NC(=O)c1ccccc1)C(=O)N[C@H]1COc2cccc3c2N(C1=O)[C@H](C(=O)NCc1c[nH]nn1)C3` [Compound C100, (1S,8S)-8-((S)-2-Benzoylamino-3-methyl-butyrylamino)-9-oxo-1,2,8,9-tetrahydro-7H-6-oxa-9a-aza-benzo[cd]azulene-1-carboxylic acid (1H-[1,2,3,]triazol-4-ylmethyl)-amide] here?
**A.** 1 to 300 nM

**Q.** Which IC50 does the source give for `CC(C)[C@H](NC(=O)c1cccnc1)C(=O)N[C@H]1CCc2cccc3c2N(C1=O)[C@H](C(=O)NCc1c[nH]nn1)C3` [Compound C070, (2S,5S)-5-{(S)-3-Methyl-2-[(pyridine-3-carbonyl)-amino]-butyrylamino}-4-oxo-1,2,4,5,6,7-hexahydro-azepino[3,2,1-hi]indole-2-carboxylic acid (1H-[1,2,3]triazol-4-ylmethyl)-amide] here?
**A.** 1 to 300 nM

**Q.** Which IC50 does the source give for `C[C@H](NC(=O)Cc1ccccc1)C(=O)N[C@H]1CCc2cccc3c2N(C1=O)[C@H](C(=O)NCc1c[nH]nn1)C3` [Compound C013, (2S,5S)-4-Oxo-5-((S)-2-phenylacetylamino-propionylamino)-1,2,4,5,6,7-hexahydro-azepino[3,2,1-hi]indole-2-carboxylic acid (1H-[1,2,3]triazol-4-ylmethyl)-amide] here?
**A.** > 5000 nM

**Q.** Which IC50 does the source give for `CC[C@H](C)[C@H](NC(=O)Cc1nc2ccccc2o1)C(=O)N[C@H]1CCc2cccc3c2N(C1=O)[C@H](C(=O)NCc1c[nH]nn1)C3` [Compound C160, (2S,5S)-5-[(2S,3S)-2-(2-Benzooxazol-2-yl-acetylamino)-3-methyl-pentanoylamino]-4-oxo-1,2,4,5,6,7-hexahydro-azepino[3,2,1-hi]indole-2-carboxylic acid (1H-[1,2,3]triazol-4-ylmethyl)-amide] here?
**A.** 1 to 300 nM

**Q.** For `CC[C@H](C)[C@H](NC(=O)c1cccnc1)C(=O)N[C@H]1CCc2cccc3c2N(C1=O)[C@H](C(=O)NCc1c[nH]nn1)C3` [Compound C067, (2S,5S)-5-{(2S,3S)-3-Methyl-2-[(pyridine-3-carbonyl)-amino]-pentanoylamino}-4-oxo-1,2,4,5,6,7-hexahydro-azepino[3,2,1-hi]indole-2-carboxylicacid (1H-[1,2,3]triazol-4-ylmethyl)-amide], which IC50 is on record?
**A.** 1 to 300 nM

**Q.** For `COc1cccc(C(=O)N[C@H](C(=O)N[C@H]2CCc3cccc4c3N(C2=O)[C@H](C(=O)NCc2c[nH]nn2)C4)C(C)C)c1` [Compound C064, (2S,SS)-5-[(S)-2-(3-Methoxy-benzoylamino)-3-methyl-butyrylamino]-4-oxo-1,2,4,5,6,7-hexahydro-azepino[3,2,1-hi]indole-2-carboxylic acid (1H-[1,2,3]triazol-4-ylmethyl)-amide], which IC50 is on record?
**A.** 1 to 300 nM

Reference: patent US11667645B2, “Granzyme B directed imaging and therapy” (CytoSite Biopharma Inc., priority 2018, dated 2023)
